Assay results as given in ChEMBL document CHEMBL1159366, “Antimycobacterial activity of phorbol esters from the fruits of Sapium indicum” (2003).
≈ marks a conversion by molar mass, not a printed value.

system: Mycobacterium tuberculosis; assay: Antimycobacterial activity against Mycobacterium tuberculosis H37Ra; type: functional

Compound	MIC
CNc1ccccc1C(=O)O[C@@H]1[C@@H](C)[C@]2(O)[C@@H]3C=C(C)C(=O)[C@@H]3[C@H](O)C(CO)=C[C@H]2[C@@H]2C(C)(C)[C@]12OC(C)=O	25 µg/mL (≈ 46.3 µM)
NNC(=O)c1ccncc1 [ISONIAZID]	0.04 µg/mL (≈ 0.292 µM)
CNc1ccccc1C(=O)O[C@@H]1[C@@H](C)[C@]2(O)[C@@H]3C=C(C)C(=O)[C@H]3CC(C)=C[C@H]2[C@@H]2C(C)(C)[C@]12OC(C)=O	50 µg/mL (≈ 98.5 µM)
NC[C@H]1O[C@H](O[C@H]2[C@H](O)[C@@H](O[C@H]3O[C@H](CO)[C@@H](O)[C@H](N)[C@H]3O)[C@H](N)C[C@@H]2N)[C@H](O)[C@@H](O)[C@@H]1O.O=S(=O)(O)O [KANAMYCIN SULFATE]	2 µg/mL
CNc1ccccc1C(=O)O[C@@H]1[C@@H](C)[C@]2(O)[C@@H]3C=C(C)C(=O)[C@@H]3CC(CO)=C[C@H]2[C@@H]2C(C)(C)[C@]12OC(C)=O	> 200 µg/mL
CNc1ccccc1C(=O)O[C@@H]1[C@@H](C)[C@]2(O)[C@@H]3C=C(C)C(=O)[C@H]3CC(CO)=C[C@H]2[C@@H]2C(C)(C)[C@]12OC(C)=O [SAPINTOXIN A]	3.12 µg/mL (≈ 5.96 µM)
CNc1ccccc1C(=O)O[C@@H]1[C@@H](C)[C@]2(O)[C@@H]3C=C(C)C(=O)[C@@H]3CC(C)=C[C@H]2[C@@H]2C(C)(C)[C@]12OC(C)=O	200 µg/mL (≈ 394 µM)
CNc1ccccc1C(=O)O[C@@H]1[C@@H](C)[C@]2(O)[C@@H]3C=C(C)C(=O)[C@@H]3[C@H](O)C(C)=C[C@H]2[C@@H]2C(C)(C)[C@]12OC(C)=O	> 200 µg/mL
CNc1ccccc1C(=O)O[C@@H]1[C@@H](C)[C@]2(O)[C@@H]3C=C(C)C(=O)[C@H]3[C@H](O)C(CO)=C[C@H]2[C@@H]2C(C)(C)[C@]12OC(C)=O [SAPINTOXIN B]	12.5 µg/mL (≈ 23.2 µM)
CNc1ccccc1C(=O)O[C@@H]1[C@@H](C)[C@]2(O)[C@@H]3C=C(C)C(=O)[C@H]3[C@H](O)C(C)=C[C@H]2[C@@H]2C(C)(C)[C@]12OC(C)=O [SAPINTOXIN C]	25 µg/mL (≈ 47.7 µM)
